Key:
Assay in all cases: relative viability (nuclei count vs DMSO), 5 days (fraction); higher = more cells survive
Lapatinib + AZD7762 = compound: CS(=O)(=O)CCNCc1ccc(-c2ccc3ncnc(Nc4ccc(OCc5cccc(F)c5)c(Cl)c4)c3c2)o1 [Lapatinib] + NC(=O)Nc1cc(-c2cccc(F)c2)sc1C(=O)N[C@H]1CCCNC1 [AZD7762] (partner 0.2 µM)
Method in brief: (§1)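 Dosing by pin tool came one day after lung cancer cell lines were seeded in 1536-well plates, using either one drug or a fixed anchor-drug dose plus five library-drug doses (not always all listed) in √10 steps. After 5 days, nuclei were counted on 4× images. Relative viability is treated-well nuclei count divided by vehicle-well nuclei count, and values are medians of duplicate plates.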

Wnt-C59 + Trametinib = compound: CC1=NC=CC(=C1)C2=CC=C(C=C2)CC(=O)NC3=CC=C(C=C3)C4=CN=CC=C4 [Wnt-C59] + CC(=O)Nc1cccc(-n2c(=O)n(C3CC3)c(=O)c3c(Nc4ccc(I)cc4F)n(C)c(=O)c(C)c32)c1 [Trametinib] (partner 0.02 µM)
Method in brief: as §1

Wnt-C59 + Olaparib = compound: CC1=NC=CC(=C1)C2=CC=C(C=C2)CC(=O)NC3=CC=C(C=C3)C4=CN=CC=C4 [Wnt-C59] + O=C(c1cc(Cc2n[nH]c(=O)c3ccccc23)ccc1F)N1CCN(C(=O)C2CC2)CC1 [Olaparib] (partner 8 µM)
Method in brief: as §1

Lapatinib + Foretinib = compound: CS(=O)(=O)CCNCc1ccc(-c2ccc3ncnc(Nc4ccc(OCc5cccc(F)c5)c(Cl)c4)c3c2)o1 [Lapatinib] + COc1cc2c(Oc3ccc(NC(=O)C4(C(=O)Nc5ccc(F)cc5)CC4)cc3F)ccnc2cc1OCCCN1CCOCC1 [Foretinib] (partner 0.25 µM)
Method in brief: as §1

| Cell Line | relative viability (Lapatinib + AZD7762; first compound 0.06325 µM) | relative viability (Lapatinib + AZD7762; first compound 0.2 µM) | relative viability (Lapatinib + AZD7762; first compound 0.6325 µM) | relative viability (Lapatinib + AZD7762; first compound 2 µM) | relative viability (Wnt-C59 + Trametinib; first compound 0.001 µM) | relative viability (Wnt-C59 + Trametinib; first compound 0.01 µM) | relative viability (Wnt-C59 + Trametinib; first compound 0.03162 µM) | relative viability (Wnt-C59 + Trametinib; first compound 0.1 µM) | relative viability (Wnt-C59 + Olaparib; first compound 0.001 µM) | relative viability (Wnt-C59 + Olaparib; first compound 0.01 µM) | relative viability (Wnt-C59 + Olaparib; first compound 0.03162 µM) | relative viability (Wnt-C59 + Olaparib; first compound 0.1 µM) | relative viability (Lapatinib + Foretinib; first compound 0.06325 µM) | relative viability (Lapatinib + Foretinib; first compound 0.2 µM) | relative viability (Lapatinib + Foretinib; first compound 0.6325 µM) | relative viability (Lapatinib + Foretinib; first compound 2 µM) | relative viability (Lapatinib + AZD7762; first compound 0.02 µM) | relative viability (Lapatinib + Foretinib; first compound 0.02 µM) |
| --- | --- | --- | --- | --- | --- | --- | --- | --- | --- | --- | --- | --- | --- | --- | --- | --- | --- | --- |
| CAL-12T | 0.615 | 0.515 | 0.587 | 0.592 | 0.327 | 0.378 | 0.367 | 0.381 | 0.727 | 0.689 | 0.674 | 0.783 | 1.12 | 1.03 | 1.02 | 0.954 | – | – |
| NCI-H1975 | 0.592 | 0.617 | 0.538 | 0.5 | 0.414 | 0.38 | 0.33 | 0.349 | 0.797 | 0.807 | 0.786 | 0.869 | 0.855 | 1.02 | 0.835 | 0.715 | 0.821 | 0.924 |
| PC-14 | 0.331 | 0.301 | 0.295 | 0.138 | 0.97 | 0.911 | 0.9 | 0.729 | 0.26 | 0.248 | 0.342 | 0.292 | 0.913 | 1.03 | 0.873 | 0.78 | 0.362 | 0.864 |
| NCI-H1944 | 0.453 | 0.51 | 0.47 | 0.379 | 0.433 | 0.449 | 0.431 | 0.369 | 0.463 | 0.396 | 0.343 | 0.388 | 0.637 | 0.745 | 0.723 | 0.537 | 0.504 | 0.836 |
| A-427 | 0.658 | 0.745 | 0.793 | 0.681 | 0.749 | 0.746 | 0.81 | 0.876 | 0.767 | 0.79 | 0.751 | 0.789 | 0.905 | 1.1 | 1.08 | 0.859 | 0.709 | – |
| H3255 | 0.892 | 0.799 | 0.664 | 0.501 | 0.664 | 0.495 | 0.683 | 0.506 | 0.641 | 0.458 | 0.56 | 0.526 | 0.789 | 0.826 | 0.862 | 0.686 | 0.818 | 0.405 |
| NCI-H23 | – | 0.216 | 0.232 | 0.154 | 0.396 | 0.346 | 0.385 | 0.432 | 0.353 | 0.256 | 0.362 | 0.333 | – | 0.908 | 0.958 | 0.898 | – | – |
| NCI-H2087 | 1.47 | 1.17 | 1.36 | 1.25 | 0.203 | 0.176 | 0.205 | 0.259 | 0.608 | 0.657 | 0.688 | 0.722 | 0.942 | 1.17 | 0.994 | 0.962 | 1.5 | – |
| NCI-H2347 | 0.705 | 0.637 | 0.81 | 0.612 | 0.357 | 0.271 | 0.318 | 0.194 | 0.554 | 0.541 | 0.615 | 0.593 | 0.694 | 0.854 | 0.994 | 1.02 | 0.495 | – |
| NCI-H596 | 0.878 | 0.939 | 1.1 | 0.819 | 0.734 | 0.704 | 0.879 | 0.876 | 0.7 | 0.664 | 0.742 | 0.745 | 0.832 | 0.756 | 0.835 | 0.789 | – | – |
| ChaGo-K-1 | 0.805 | 0.926 | 0.942 | 0.882 | 0.845 | 0.875 | 0.96 | 0.841 | 0.419 | 0.417 | 0.462 | 0.435 | 0.936 | 0.879 | 0.951 | 0.835 | 0.703 | 0.907 |
| LU99A | 0.217 | 0.363 | 0.388 | 0.329 | 0.583 | 0.474 | 0.569 | 0.506 | 0.28 | 0.264 | 0.29 | 0.23 | 0.72 | 0.74 | 0.836 | 0.815 | 0.329 | 0.784 |
| NCI-H1734 | 0.42 | 0.587 | 0.507 | 0.541 | 0.675 | 0.744 | 0.77 | 0.632 | 0.615 | 0.612 | 0.672 | 0.282 | 0.694 | 0.804 | 0.888 | 0.779 | – | 0.842 |
| NCI-H2126 | 0.927 | 0.983 | 0.975 | 0.928 | 0.579 | 0.532 | 0.573 | 0.581 | 0.896 | 0.952 | 0.88 | 0.905 | – | 1.13 | 1.03 | 0.612 | 0.55 | – |
| NCI-H838 | 0.832 | 0.904 | 0.939 | 0.843 | 0.538 | 0.55 | 0.491 | 0.482 | 0.765 | 0.806 | 0.807 | 0.739 | 0.951 | 1.14 | 1.06 | 0.866 | 0.927 | 1.1 |
| HCC-78 | 0.528 | 0.422 | 0.599 | 0.564 | 0.691 | 0.746 | 0.908 | 0.854 | 0.883 | 0.852 | 0.855 | 0.633 | 0.427 | 0.446 | 0.429 | 0.401 | – | – |
| NCI-H460 | 0.62 | 0.679 | 0.537 | 0.387 | 0.0894 | 0.111 | 0.191 | 0.156 | 0.462 | 0.483 | 0.474 | 0.459 | 1 | 0.998 | 0.966 | 0.69 | – | 0.923 |

From the supplement of paper PMC10307832
